Data taken from ChEMBL document CHEMBL1142568, “Cytotoxic hydroxylated triterpene alcohol ferulates from rice bran” (J Nat Prod, 2005).
pIC50: −log10 of the molar value.

The molecules below were run on MCF7 (assay: Cytotoxicity against human MCF7 cells after 72 hrs by MTT assay). Conditions: MCF7, 72 h.
Format: functional, cell-based
Molecule `C=C(CC[C@@H](C)[C@H]1CC[C@@]2(C)[C@@H]3CC[C@H]4C(C)(C)[C@@H](OC(=O)/C=C/c5ccc(O)c(OC)c5)CC[C@@]45C[C@@]35CC[C@]12C)C(C)C` has a pIC50 of 4.57. `COc1cc(/C=C/C(=O)O[C@H]2CC[C@]34C[C@]35CC[C@]3(C)[C@@H]([C@H](C)C/C=C\C(C)(C)O)CC[C@@]3(C)[C@@H]5CC[C@H]4C2(C)C)ccc1O` showed a pIC50 of 4.10. Molecule `C=C(C)[C@@H](O)CC[C@@H](C)[C@H]1CC[C@@]2(C)[C@@H]3CC[C@H]4C(C)(C)[C@@H](OC(=O)/C=C/c5ccc(O)c(OC)c5)CC[C@@]45C[C@@]35CC[C@]12C` has a pIC50 of 3.55. Molecule `C=C(C)[C@H](O)CC[C@@H](C)[C@H]1CC[C@@]2(C)[C@@H]3CC[C@H]4C(C)(C)[C@@H](OC(=O)/C=C/c5ccc(O)c(OC)c5)CC[C@@]45C[C@@]35CC[C@]12C` has a pIC50 of 4.38. In the case of `COc1cc(/C=C/C(=O)O[C@H]2CC[C@]34C[C@]35CC[C@]3(C)[C@@H]([C@H](C)CCC=C(C)C)CC[C@@]3(C)[C@@H]5CC[C@H]4C2(C)C)ccc1O` [GAMMA ORYZANOL], the pIC50 was 4.10.
